In PubChem BioAssay AID624491 (Broad Institute, 2012):

What follows are compounds tested on D54 ERlucT glycosylation luciferase reporter, luminescence, 24 h (assay: blockers of NLG process in reporter cells – D54 ERlucT cells, luminescence, cherry-picks, dose response (AID 624491);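 further: signal gain reflects blocked N-linked glycosylation of a luciferase reporter; actives raise luciferase signal so AC26 marks activators of the reporter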).

Row | SMILES | AC26 [nM]
1 | Nc1nc(=S)c2ncn(C3OC(CO)C(O)C3O)c2[nH]1 (stereo not drawn) | 4980
2 | CCOC(=O)c1[nH]c(C)c(C(=O)N2CCc3ccccc32)c1C | 133
3 | CCN(CC)CCNC(=O)c1cc2c(-c3ccc(Cl)cc3)nn(C)c2s1 | 3330
4 | COc1ccccc1C1CC(=O)Nc2cc3c(cc21)OCCO3 (stereo not drawn) | 10500
5 | COc1cc(C(=O)Nc2cc3c(cc2N2CCCCC2)n(C)c(=O)n3C)cc(OC)c1OC | 3870
6 | Cc1ccc(C(=O)N/C(=C/c2cccs2)C(=O)NCCc2c[nH]c3ccccc23)cc1 | 1080
7 | COc1ccc(NC(=O)c2nc(C)c(C3(C)CC(c4ccccc4)=NO3)s2)cc1 (stereo not drawn) | 4020
8 | c1ccc(CNc2nc(NCCc3ccncc3)c3sccc3n2)cc1 | 1120
9 | CCOC(=O)c1c(C)nc2c(c1-c1cc(OC)c(OC)c(OC)c1)C(=O)c1ccccc1-2 | 1560
10 | Cc1[nH][nH]c(=O)c1C(c1ccc(-c2cccc(Cl)c2)o1)c1c(C)[nH][nH]c1=O | < 1.2
11 | Cc1ccnc(NC(=O)CN2C(=O)NC(C)(c3ccc4ccccc4c3)C2=O)c1 (stereo not drawn) | 11400
12 | CN1CCN(CC(=O)Nc2cc(N(C)C)nc3ccccc23)CC1 | 6650
13 | COc1ccc2c(c1)CCc1c(C(=O)Nc3cc(C)n(Cc4ccc(Cl)cc4)n3)noc1-2 | 3370
14 | COC1C(O)C(C)OC(OC2C(Oc3cccc4c(O)c5c(=O)oc6ccc(C)c7c(=O)oc(c34)c5c67)OC(C)C(O)C2O)C1O (stereo not drawn) | 1000
15 | OCC1OC(n2cnc3c(SCc4ccccc4)ncnc32)C(O)C1O (stereo not drawn) | 1050
16 | Cc1cc(C)c2nc3nc(C)cc(C)c3c(N)c2c1 | 145
17 | COc1ccc(-n2c(=S)[nH]c3cc(C(=O)Nc4ccc(F)cc4)ccc3c2=O)c(OC)c1 | 4550
18 | Cc1cccc2cc(/C=C/C(=O)c3ccco3)c(Cl)nc12 | 3830
19 | O=C(Cn1ncc(Cl)c(Cl)c1=O)N1CCOCC1 | 1220
20 | CCN(c1cccc(C)c1)S(=O)(=O)c1ccc(-c2cc(C)no2)s1 | 1270
21 | Cc1ccc(-c2nn3c(C)nnc3c3ccccc23)cc1S(=O)(=O)NC(C)(C)CO | 826
22 | CN(C)S(=O)(=O)c1ccc(N2CCCC2)c(C(=O)Nc2nc3ccc(F)cc3s2)c1 | 1540

Row | SMILES | AC26 [nM]
23 | Cc1c(Cl)cccc1Nc1nc(N)nc(CN2CCc3ccccc3C2)n1 | 320
24 | COc1cc(/C=C2/CCC/C(=C\c3cc(O)c(OC)c(Cl)c3)C2=O)cc(Cl)c1O | 2230
25 | Cc1ccccc1OCCc1c(C)[nH]c(=S)[nH]c1=O | 1700
26 | CCc1ccc(C(=O)Nc2ccc3c(c2)n(C)c(=O)n3C)cc1 | 6220
27 | CCN(CC)CCNc1ccc(CO)c2oc3cc(Cl)ccc3c(=O)c12 | 2820
28 | NC(=O)c1cccc(-c2ccnc3c2CC(C(=O)NCc2ccccc2)O3)c1 (stereo not drawn) | 2000
29 | COc1ccc2[nH]c(C(=O)N/N=C/c3ccccc3OC)cc2c1 | 1010
30 | CCc1ccc(C2c3[nH]c4ccccc4c3CCN2C(=O)c2ccc(=O)n(C)n2)cc1 (stereo not drawn) | 1330
31 | O=c1[nH]c(-c2ccccc2)nc2sc(-c3ccccc3)cc12 | 2320
32 | NC(=O)N=Nc1c2[nH]c3ccccc3nc-2c2ccccc12 | 1130
33 | Cn1nc(C(F)(F)F)c(/C=N/OC(=O)c2ccccc2Cl)c1SCc1ccc(Cl)cc1 | 3940
34 | CCCCCCCCCCCCCCCCCCNc1ccn(C2OC(COP(=O)(O)OCC3OC(n4cc(F)c(=O)[nH]c4=O)CC3O)C(O)C2O)c(=O)n1 (stereo not drawn) | 3970
35 | Cc1cc(C)cc(N2C(=O)NC(=O)/C(=C\C=C\c3ccco3)C2=O)c1 | 1130
36 | Cn1nc(C(F)(F)F)c(/C=N/OC(=O)c2ccccc2Cl)c1SCc1ccccc1Cl | 817
37 | COc1cc(F)ccc1-c1csc(C(NC(C)=O)c2ccccc2)n1 (stereo not drawn) | 11.1
38 | Cc1ccc2nc3c(cc(C(N)=S)c(=N)n3CCCOC(C)C)c(=O)n2c1 | 1140
39 | CC(=O)Nc1cccc(NC(=O)c2ccccc2OCc2ccccc2)c1 | 1350
40 | CCOC(=O)C1CCN(c2c(N3CCN(Cc4ccccc4)CC3)c(=O)c2=O)CC1 | 1810
41 | CS(=O)(=O)c1cccc(C(=O)Nc2ccc(-c3nc4ccccc4[nH]3)cc2)c1 | 3070
42 | COc1ccc(CCn2c(=N)c(C(=O)NCc3ccco3)cc3c(=O)n4ccccc4nc32)cc1 | 2810
43 | CCOc1ccc(NC(=S)NC(=O)/C=C/c2ccc(C)cc2)c([N+](=O)[O-])c1 | 3930
44 | COCCOC(=O)c1[nH]c2c(c1C)C(=O)CC(c1ccco1)C2 (stereo not drawn) | 3540

Row | SMILES | AC26 [nM]
45 | CC(Oc1ccc2c(c1)c1ccnc3c4ccccc4c(=O)n2c13)C(=O)NCCN1CCOCC1 (stereo not drawn) | 6140
46 | Cc1cnc(NC(=O)c2cc(S(=O)(=O)N(C)C)ccc2N2CCCC2)s1 | 10.7
47 | COc1cc(N)ccc1Nc1c2ccccc2nc2ccccc12 | 70
48 | O=C1NC(=O)N(Cc2ccco2)C(=O)/C1=C/C=C/c1ccco1 | 953
49 | Cc1[nH]nc2c1C(c1ccc(-c3ccc(Cl)cc3)o1)C(C#N)=C(N)O2 (stereo not drawn) | 1140
50 | CCOC(=O)c1cnc2c(ccc3ccccc32)c1NCCCN(C)C | 2050
51 | Cc1cc(-c2nnc3n2N=C(c2ccc(-c4ccccc4)cc2)CS3)n[nH]1 | 2760
52 | Cc1nnc2c(NC3CCCCC3)nc3ccccc3n12 | 2760
53 | CC(Nc1nc(-c2ccccc2O)nc2ccccc12)c1ccccc1 (stereo not drawn) | 65.6
54 | O=C(Nc1cccc(F)c1)c1cc(S(=O)(=O)N2CCOCC2)ccc1N1CCCC1 | 947
55 | CCN(CC)CCNc1nc2cc(OC)c(OC)cc2c2nc(-c3ccccc3)nn12 | 1860
56 | COc1cc2c(C#N)c(N3CCc4ccccc4C3)nc(N)c2c(N)n1 | 6220
57 | COC(=O)c1sc(N)c(C(=O)OC)c1COC(=O)c1c(C)noc1C | 2130
58 | CCOC(=O)N1CCN(c2c(NCc3ccc(F)cc3)c(=O)c2=O)CC1 | 8400
59 | Cc1noc(C)c1COc1cccc(C(=O)OC(C)C(=O)Nc2ccc3c(c2)OCO3)c1 (stereo not drawn) | 40.4
60 | O=C(O)CCC/C=C\C[C@@H]1[C@@H](/C=C/[C@@H](O)COc2cccc(Cl)c2)[C@H](O)C[C@@H]1O | < 1.2
61 | COc1ccc(CNCC(=O)Nc2ccccc2-n2cccc2)cc1 | 922
62 | CN(C)S(=O)(=O)c1ccc(N2CCCC2)c(C(=O)Nc2ccccc2)c1 | 957
63 | COCCCNc1nnc(Cc2ccc(Cl)cc2)c(=O)[nH]1 | 1050
64 | COC(=O)c1cc(=O)n(-c2ccc(F)cc2)c(=Nc2ccc(F)cc2)s1 | 4230
65 | CCNCCNc1ccc([N+](=O)[O-])c2cccnc12 | 7750
66 | CC(C)C(=O)Nc1ccc(C(=O)N/N=C/c2cc(Br)cc(Br)c2O)cc1 | 9890

Row | SMILES | AC26 [nM]
67 | COc1ccc(C(=O)CSc2nn3c(=O)c(C(C)(C)C)nnc3s2)cc1 | 3870
68 | Cc1c(-c2nc(N)nc(Nc3ccccc3)n2)oc2ccccc12 | 3890
69 | O=C(c1ncn(Cc2ccccc2)c1C(=O)N1CCN(c2ccccc2)CC1)N1CCN(c2ccccc2)CC1 | 513
70 | Cc1ccc2c(c1)cc(CN(C(=O)N1CCOCC1)C1CCCC1)c1nnnn12 | 4120
71 | COc1cc(OC)c(N2CC(C(=O)Nc3cc(Cl)ccc3N3CCOCC3)CC2=O)cc1Cl (stereo not drawn) | 3310
72 | Clc1cccc(N2Cc3cc(-c4ccccc4)ccc3-n3nncc3C2)c1 | 3580
73 | COc1ccc(OC)c(Nc2cc3ccccc3c(=O)[nH]2)c1 | 207
74 | Cc1ccc2nc(Cl)c(/C=C/C(=O)c3ccco3)cc2c1 | 7890
75 | COCCNC(=O)c1cc(-c2ccccc2OC)on1 | 9620
76 | Cc1ccc(C(=O)NC(=C(Cl)Cl)S(=O)(=O)c2ccc(C)cc2)cc1 | 2550
77 | COc1ccc2c(c1)[C@H]1[C@H](CO2)[C@H](c2ccccc2)[C@]2(C)C(=O)Nc3cc(OC)c(OC)cc3C(=O)N12 | 13.1
78 | CCOC(=O)N1CCc2cc(OC)c(OC)c3c2c1cc1cc(OC)c(OC)cc13 | 11100
79 | O=C(Nc1ncccc1O)c1ccc(C(=O)c2ccccc2)cc1 | 5180
80 | COc1cccc(Oc2ccc(C(F)(F)F)cc2NC(=O)CN2C(=O)NC3(CCCC3)C2=O)c1 | 4850
81 | Oc1cc(Nc2ccccc2)cc2cccnc12 | 1030
82 | CCCCn1c(SCc2c(C)noc2C)nc2cc(S(N)(=O)=O)ccc21 | 1190
83 | CCn1c(=S)[nH]c2cc(S(=O)(=O)N3CCCCC3)ccc21 | 1090
84 | NS(=O)(=O)c1cc(C(=O)NCCOc2ccccc2)c(Cl)cc1Cl | 5620
85 | COc1cc2c(cc1OC)C(c1ccccc1)N(C(=O)c1ccccc1)CC2 (stereo not drawn) | 869
86 | CC(NC(=O)c1ccc2ccccc2n1)c1ccc(S(N)(=O)=O)cc1 (stereo not drawn) | 4020
87 | O=C(NCc1ccccc1Br)c1cccc2c1C(=O)c1ccc(-c3ccc(OC(F)(F)F)cc3)cc1S2(=O)=O | 4060
88 | C#CC[N+](C)(C)CCCCCCCCC | 6070

Row | SMILES | AC26 [nM]
89 | Cc1ccc(OCCNC(=O)C(=O)NCc2ccco2)cc1 | 6100
90 | CCOc1ccccc1NC(=O)CN(c1ccc(OC)cc1)S(=O)(=O)c1c(C)noc1C | 4150
91 | CCN(CC)c1ccc(NC(=O)c2cc(OC)cc(OC)c2)c(C)c1 | 932
92 | CCN(CC)CCNc1cccc2sc3ccccc3c(=O)c12 | 4840
93 | CC(=O)OC12COC1CC(O)C1(C)C(=O)C(O)C3=C(C)C(O)CC(O)(C(OC(=O)c4ccccc4)C21)C3(C)C (stereo not drawn) | 1120
94 | CCN1C(=O)Nc2cccc3cccc1c23 | 3360
95 | Cc1cc(C)nc(N2Cc3ccccc3C2=N)n1 | 4560
96 | CN(/N=C/c1ccc(N(C)C)cc1)C1=NS(=O)(=O)c2ccccc21 | 1610
97 | COC(=O)c1cc(C(=O)c2c(C)cc3ccccn23)cc([N+](=O)[O-])c1 | 1770
98 | O=C(NCC1CCCO1)c1cc(-c2ccc(F)cc2)no1 (stereo not drawn) | 5760
99 | Cc1[nH]c2ccc(C(=O)N3CCN(c4cccc(Cl)c4)CC3)cc2c1C | 8650
100 | COc1ccc(NC(=O)c2cccc3c(-c4ccc(O)c(OC)c4)coc23)cc1 | 13400
101 | Cc1cccc(/C=N\Nc2cn[nH]c(=O)c2Cl)c1 | 4560
102 | C[C@H]1CN([C@@H](C)CO)C(=O)Cc2cc(NC(=O)CCC(F)(F)F)ccc2O[C@H]1CN(C)S(=O)(=O)c1ccc(Cl)cc1 | 2260
103 | COc1ccc(C2C(C(=O)Nc3cc(OC)c(OC)c(OC)c3)c3ccccc3C(=O)N2C)cc1 (stereo not drawn) | 5180
104 | COc1ccc(CCCC(=O)NCc2ccccc2)cc1C | 6540
105 | COc1ccc(S(=O)(=O)NCc2ccccn2)cc1NC(=O)c1ccccc1 | 234
106 | O=[N+]([O-])c1cc(S(=O)(=O)C(F)(F)F)ccc1Sc1nc2ccccc2[nH]1 | 4570
107 | CCOC(=O)c1sc(Nc2nc(C)cc(C)n2)nc1C | 949
108 | COc1cc2c(cc1OC)CN(C(=O)c1ccc3nc[nH]c3c1)CC2 | 6320
